Laboratory results published in patent US4556660A, “N-(Bicyclic heterocyclyl)-4-piperidinamines” (Janssen Pharmaceutica N.V., priority 1983, dated 1985).
Like-named read-outs stand apart in the source and are kept apart here.

Columns and labels:
[1] = test system: compound 48/80-induced lethality; experiment: Protection of rats from compound 48/80-induced lethality; type: in vivo, Male rats of an inbred Wistar strain; conditions: for ED50: Rattus norvegicus, 4 h, read-out: compound 48/80 lethality test rats-ED50
Method: Protection of rats from compound 48/80-induced lethality
The protection from compound 48/80-induced lethal circulatory collapse appears to be a simple way of evaluating quantitatively the antihistaminic activity of test compounds. Male rats of an inbred Wistar strain, weighing 240-260 g were used in the experiment. After overnight starvation the rats were transferred to conditioned laboratories (temp.=21±1° C., relative humidity-65±5%).
The rats were treated subcutaneously or orally with a test compound or with the solvent (NaCl solution, 0.9%). […] Survival after 4 hours is therefore considered to be a safe criterion of a protective effect of drug administration.
The ED50 -values of the compounds of formula (I) and the intermediates of formula (XVIII) are listed in the first column of table 1 and table 2. Said ED50 -values are the values in mg/kg body weight at which the tested compounds protect 50% of the tested animals against compound 48/80-induced lethality.

[2] = test system: serotonin; compound 48/80-induced gastric lesions; experiment: Antagonistic activity on the effects of serotonin in the gastric lesion test (lesions induced by compound 48/80); type: in vivo, Male rats of a Wistar inbred strain
Method: Antagonistic activity on the effects of serotonin in the gastric lesion test
Male rats of a Wistar inbred strain, weighing 220-250 g, were starved overnight, water being available ad libitum. The test compounds were administered orally as a solution or as a suspension in aqueous medium. A control rat and a "blank" rat received the test compound. One hour later 5-[4-(diphenylmethyl)-1-piperazinylmethyl]-1-methyl-1H-benzimidazole-2-methanol was administered subcutaneously to all rats at the dose of 2.5 mg/kg.
Four hours after the intravenous injection of compound 48/80, the rats were decapitated and the stomachs were removed. Subsequently the stomachs were inspected for distension and contents (blood, fluid, food) and thoroughly rinsed. The macroscopic lesions were scored from 0 to +++, 0 corresponding to complete absence of visible lesions and the highest score corresponding to reddish rough patches covering more than half the glandular area.

[3] = Rattus norvegicus, po; read-out: gastric lesion test ED50
[4] = Rattus norvegicus, po, read-out: gastric lesion test ED50

| Compound | ED50 [1] | ED50 [2, 3] | also measured |
| --- | --- | --- | --- |
| c1cnc(NCCN2CCC(Nc3nc4ccccc4n3Cc3cnccn3)CC2)nc1 [Compound 18] | 0.01 mg/kg | 0.63 mg/kg | – |
| CCCc1cc(O)nc(NCCN2CCC(Nc3nc4ccccc4n3Cc3ccc(F)cc3)CC2)n1 [Compound 86, 2-[[2-[4-[[1-[(4-fluorophenyl)methyl]-1H-benzimidazol-2-yl]amino]-1-piperidinyl]ethyl]amino]-6-propyl-4-pyrimidinol] | 0.31 mg/kg | 2.5 mg/kg | – |
| CC(CN1CCC(Nc2nc3ccccc3n2Cc2ccc(F)cc2)CC1)Nc1ncccn1 (centres unmarked) [Compound 7] | 0.63 mg/kg | 0.63 mg/kg | – |
| Cl.Cl.Cl.Fc1ccc(Cn2c(NC3CCN(CCCNc4ccc(Cl)cn4)CC3)nc3ccccc32)cc1.O [Compound 30, N-[1-[3-[(5-chloro-2-pyridinyl)amino]propyl]-4-piperidinyl]-1-[(4-fluorophenyl)methyl]-1H-benzimidazol-2-amine trihydrochloride monohydrate] | 0.63 mg/kg | 2.5 mg/kg | – |
| N#CCN1CCC(Nc2nc3cnccc3n2Cc2ccc(F)cc2)CC1 [Intermediate 81] | 0.63 mg/kg | – | – |
| c1cnc(NCCN2CCC(Nc3nc4ccccc4n3Cc3ccco3)CC2)nc1 [Compound 43] | 0.16 mg/kg | – | ED50 [2, 4]: 0.04 mg/kg |
| c1cnc(NCCN2CCC(Nc3nc4ccccc4n3Cc3cccs3)CC2)nc1 [Compound 19] | 0.02 mg/kg | 2.5 mg/kg | – |
| COc1ccc2c(c1)nc(NC1CCN(CCNc3ncccn3)CC1)n2Cc1ccc(F)cc1 | 1.25 mg/kg | 2.5 mg/kg | – |
| Fc1ccc(Cn2c(NC3CCN(CCN(Cc4ccccc4)c4ncccn4)CC3)nc3ccccc32)cc1 [Compound 8] | 0.63 mg/kg | 0.63 mg/kg | – |
| CC(=O)N(CCN1CCC(Nc2nc3ccccc3n2Cc2ccc(F)cc2)CC1)c1ncccn1.O=C(O)/C=C/C(=O)O.O=C(O)/C=C/C(=O)O [Compound 99, N-[2-[4-[[1-[(4-fluorophenyl)methyl]-1H-benzimidazol-2-yl]amino]-1-piperidinyl]ethyl]-N-(2-pyrimidinyl)acetamide (E)-2-butenedioate (1:2)] | 0.04 mg/kg | 0.63 mg/kg | – |
| NC(=O)c1cccnc1NCCN1CCC(Nc2nc3ccccc3n2Cc2ccco2)CC1 [Compound 46] | 0.04 mg/kg | 0.63 mg/kg | – |
| O=C(O)/C=C/C(=O)O.O=C(O)/C=C/C(=O)O.c1cnc(NCCN2CCC(Nc3nc4ccccc4n3Cc3cscn3)CC2)nc1 [Compound 72, N-[1-[2-(2-pyrimidinylamino)ethyl]-4-piperidinyl]-1-(4-thiazolylmethyl)-1H-benzimidazol-2-amine (E)-2-butenedioate (1:2)] | 0.02 mg/kg | – | ED50 [2, 4]: 0.08 mg/kg |
| 3[(4-fluorophenyl)methyl]-N-[1-[2-[(2-pyridinyl)amino]ethyl]-4-piperidinyl]-3H-imidazo[4,5-b]pyridin-2-amine [Compound 23] | – | – | compound 48/80 lethality test rats-ED50 ([1]; rats, subcutaneous or oral, 1 h before compound 48/80 0.5 mg/kg i.v., 50% protected, survival after 4 h): 0.04 mg/kg body weight; gastric lesion test ED50 ([2]; rats, oral, 2 h before compound 48/80 1 mg/kg i.v.; stomach distension and glandular lesions completely absent in 50% of rats): 0.08 mg/kg body weight |
| Fc1ccc(Cn2c(NC3CCN(C4CCCN(c5ncccn5)C4)CC3)nc3ccccc32)cc1 (centres unmarked) [Compound 12] | 1.25 mg/kg | 2.5 mg/kg | – |
| Fc1ccc(Cn2c(NC3CCN(CCNc4ncccc4Cl)CC3)nc3cccnc32)cc1 [Compound 47] | 0.08 mg/kg | 0.31 mg/kg | – |
| Cc1cc(Cl)nc(NCCN2CCC(Nc3nc4ccccc4n3Cc3ccc(F)cc3)CC2)n1 [Compound 62, N-[1-[2-[(4-chloro-6-methyl-2-pyrimidinyl)amino]ethyl]-4-piperidinyl]-1-[(4-fluorophenyl)methyl]-1H-benzimidazol-2-amine] | 0.63 mg/kg | – | – |
| Cl.Cl.Cl.Nc1cccnc1NCCN1CCC(Nc2nc3ccccc3n2Cc2ccc(F)cc2)CC1 [Compound 93, N^2-[2-[4-[[1-[(4-fluorophenyl)methyl] -1H-benzimidazol-2-yl]amino]-1-piperidinyl]ethyl]-2,3-pyridinediamine trihydrochloride] | 0.08 mg/kg | 0.31 mg/kg | – |
| COc1ccc(Cn2c(NC3CCN(CCNc4ncccn4)CC3)nc3ccccc32)cc1 [Compound 69, 1-[(4-methoxyphenyl)methyl]-N-[1-[2-(2-pyrimidinylamino)ethyl]-4-piperidinyl]-1H-benzimidazol-2-amine] | 0.31 mg/kg | 2.5 mg/kg | – |
| Brc1ccc(NCCN2CCC(Nc3nc4ccccc4n3Cc3ccccc3)CC2)nc1 [Compound 49] | 0.31 mg/kg | 2.5 mg/kg | – |
| Fc1ccc(Cn2c(NC3CCN(CCNc4ncccn4)CC3)nc3ncccc32)cc1 [Compound 25, 1-[(4-fluorophenyl)methyl]-N-[1-[2-[(2-pyrimidinyl)amino]ethyl]-4-piperidinyl]-1H-imidazo[4,5-b]pyridin-2-amine] | 0.02 mg/kg | 0.16 mg/kg | – |

| Compound | ED50 [1] | ED50 [2, 3] | also measured |
| --- | --- | --- | --- |
| Fc1ccc(Cn2c(NC3CCN(CCNc4ncccc4Cl)CC3)nc3ccccc32)cc1 [Compound 40] | 0.16 mg/kg | 0.31 mg/kg | – |
| c1cnc(NCCN2CCC(Nc3nc4ccccc4n3Cc3cccnc3)CC2)nc1 [Compound 17] | 1.25 mg/kg | – | – |
| O=c1cc(Cc2ccccc2)[nH]c(NCCN2CCC(Nc3nc4ccccc4n3Cc3ccc(F)cc3)CC2)n1 [Compound 89, 2-[[2-[4-[[1-[(4-fluorophenyl)methyl]-1H-benzimidazol-2-yl]amino]-1-piperidinyl]ethyl]amino]-6-(phenylmethyl)-4-(1H)-pyrimidinone] | 0.63 mg/kg | – | – |
| Fc1ccc(Cn2c(NC3CCN(CCOc4ccc(Br)cn4)CC3)nc3ccccc32)cc1 [Compound 82, N-[1-[2-[(5-bromo-2-pyridinyl)oxy]ethyl]-4-piperidinyl]-1-[(4-fluorophenyl)methyl]-1H-benzimidazol-2-amine] | 0.16 mg/kg | – | – |
| O=C(NCCN1CCC(Nc2nc3ccccc3n2Cc2ccc(F)cc2)CC1)c1cccnc1Cl [Compound 115, 2-chloro-N-[2-[4-[[1-[(4-fluorophenyl)methyl]-1H-benzimidazol-2-yl]amino]-1-piperidinyl]ethyl]-3-pyridinecarboxamide (E)-2-butenedioate (1:2) hemihydrate] | 0.16 mg/kg | – | – |
| Cc1nc2ccccc2nc1NCCN1CCC(Nc2nc3ccccc3n2Cc2ccc(F)cc2)CC1 [Compound 41] | 1.25 mg/kg | – | – |
| Fc1ccc(Cn2c(NC3CCN(CCNc4cc(Cl)ncn4)CC3)nc3ccccc32)cc1 [Compound 5] | 0.31 mg/kg | – | – |
| Fc1ccc(Cn2c(NC3CCN(C4CCN(c5ncccn5)CC4)CC3)nc3ccccc32)cc1 [Compound 6] | 1.25 mg/kg | – | – |
| Fc1ccc(Cn2c(NC3CCN(CCNc4ncccn4)CC3)nc3cnccc32)cc1 [Compound 26, 1[(4-fluorophenyl)methyl]-N-[1-[2-(2-pyrimidinylamino]ethyl]-4-piperidinyl]1H-imidazo[4,5-c]pyridin-2-amine] | 0.08 mg/kg | – | – |
| NCCN1CCC(Nc2nc3cnccc3n2Cc2ccc(F)cc2)CC1 [Intermediate 111] | 0.16 mg/kg | – | – |
| COc1cc(NCCN2CCC(Nc3nc4ccccc4n3Cc3ccc(F)cc3)CC2)ncn1 [Compound 98, 1-[(4-fluorophenyl)methyl]-N-[1-[2-[(6-methoxy-4-pyrimidinyl)amino]ethyl]-4-piperidinyl]-1H-benzimidazol-2-amine] | 0.16 mg/kg | – | – |
| Fc1ccc(Cn2c(NC3CCN(CCNc4ccc5ccccc5n4)CC3)nc3ccccc32)cc1 [Compound 44] | 0.31 mg/kg | – | – |
| Cc1cc(NCCN2CCC(Nc3nc4ccccc4n3Cc3ccc(F)cc3)CC2)nc(N)n1 [Compound 35] | 0.31 mg/kg | – | – |
| Fc1ccc(Cn2c(NC3CCN(CCCNc4ncccn4)CC3)nc3ccccc32)cc1 [Compound 4] | 0.16 mg/kg | – | – |
| Brc1ccc(OCCN2CCC(Nc3nc4ccccc4n3Cc3ccco3)CC2)nc1 [Compound 78, N-[1-[2-[(5-bromo-2-pyridinyl)oxy]ethyl]-4-piperidinyl]-1-(2-furanylmethyl)-1H-benzimidazol-2-amine] | 0.31 mg/kg | – | – |
| Fc1ccc(Cn2c(NC3CCN(CCNc4ncccn4)CC3)nc3ccncc32)cc1.O=C(O)/C=C/C(=O)O.O=C(O)/C=C/C(=O)O [Compound 29, 3-[(4-fluorophenyl)methyl]-N-[1-[2-[(2-pyrimidinyl)amino]ethyl]-4-piperidinyl]-3H-imidazo[4,5-c]pyridin-2-amine (E)-2-butenedioate (1:2)] | 0.16 mg/kg | – | – |
| OCCN1CCC(Nc2nc3cnccc3n2Cc2ccc(F)cc2)CC1 [CH2 CH2 OH 4-FC6 H4 CH2 -- 3 base] | 0.31 mg/kg | – | – |
| Fc1ccc(Cn2c(NC3CCN(CCc4cnccn4)CC3)nc3ccccc32)cc1 [Compound 101, 1-(4-fluorophenylmethyl)-N-[1-[2-(2-pyrazinyl)ethyl]-4-piperidinyl]-1H-benzimidazol-2-amine] | 0.31 mg/kg | – | – |
| Cc1nc2ccccc2nc1OCCN1CCC(Nc2nc3ccccc3n2Cc2ccc(F)cc2)CC1 [Compound 80, 1-[(4-fluorophenyl)methyl]-N-[1-[2-[(3-methyl-2-quinoxalinyl)oxy]ethyl]-4-piperidinyl]-1H-benzimidazol-2-amine] | 2.5 mg/kg | – | – |
| O=[N+]([O-])c1cccnc1N1CCC(N2CCC(Nc3nc4ccccc4n3Cc3ccc(F)cc3)CC2)CC1 [Compound 11] | 0.63 mg/kg | – | – |
